Source: patent EP2776398B1, “SUBSTITUTED PYRAZOLYL-BASED UREA DERIVATIVES AS VANILLOID RECEPTOR LIGANDS” (Medifron DBT Inc., priority 2011, dated 2013)

Each compound was assayed against T1, vanilloid receptor 1 (VR1/TRPV1 receptor) (Homo sapiens, UniProt Q8NER1) (assay: Functional testing on vanilloid receptor 1: FLIPR Ca2+ influx assay against capsaicin (Cap) in transfected CHO K1 cells (pharmacological method II)). Conditions: @ 1µM; human VR1 in CHO K1 cells; capsaicin; relative to maximum inhibition with 10 µM capsazepine; read-out: inhibition (as a percentage), printed in column (f) Ki (human being) [nM] Cap.
T1 construct: expressed in transfected cells; host or cells: CHO K1 cells (ECACC), stably transfected
T1 sequence (Q8NER1 whole entry): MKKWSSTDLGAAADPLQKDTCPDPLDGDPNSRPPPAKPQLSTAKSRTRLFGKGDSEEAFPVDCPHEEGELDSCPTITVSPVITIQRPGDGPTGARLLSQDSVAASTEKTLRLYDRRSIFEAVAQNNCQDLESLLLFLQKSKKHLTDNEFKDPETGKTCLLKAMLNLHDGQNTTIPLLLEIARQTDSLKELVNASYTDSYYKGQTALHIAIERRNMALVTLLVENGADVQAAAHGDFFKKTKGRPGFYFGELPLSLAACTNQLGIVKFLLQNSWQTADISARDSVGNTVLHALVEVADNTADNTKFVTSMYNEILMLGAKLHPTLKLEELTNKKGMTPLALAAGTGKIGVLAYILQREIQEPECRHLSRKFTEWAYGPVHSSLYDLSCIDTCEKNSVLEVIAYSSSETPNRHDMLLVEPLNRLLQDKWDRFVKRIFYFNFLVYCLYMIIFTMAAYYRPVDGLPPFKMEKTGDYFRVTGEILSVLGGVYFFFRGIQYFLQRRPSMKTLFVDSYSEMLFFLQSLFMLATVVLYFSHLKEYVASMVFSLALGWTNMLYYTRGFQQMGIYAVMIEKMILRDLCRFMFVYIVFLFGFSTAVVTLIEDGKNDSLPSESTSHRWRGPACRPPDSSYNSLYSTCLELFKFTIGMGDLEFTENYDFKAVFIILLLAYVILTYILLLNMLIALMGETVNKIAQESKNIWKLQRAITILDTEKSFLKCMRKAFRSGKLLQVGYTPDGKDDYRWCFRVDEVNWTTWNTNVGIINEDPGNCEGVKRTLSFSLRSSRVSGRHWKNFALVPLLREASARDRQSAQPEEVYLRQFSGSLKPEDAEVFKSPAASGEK
Format: cell-based
Design: key to (f) Ki (human being) [nM] Cap: agonist classification: AG = agonist
Description: […]
Throughout, for Ki: 100 nM capsaicin.

Row | inhibition at 1 µM [%] | SMILES
1 | 23 | CC(C)(C)c1cc(CNC(=O)Nc2ccc(COCCO)c(F)c2)n(-c2ccc(F)cc2)n1 [A134, 1-[[5-tert-Butyl-2-(4-fluorophenyl)-2H-pyrazol-3-yl]-methyl]-3-[3-fluoro-4-(2-hydroxy-ethoxy-methyl)-phenyl]-urea]

Same assay, conditions: @ 5µM; human VR1 in CHO K1 cells; capsaicin; relative to maximum inhibition with 10 µM capsazepine; read-out: inhibition (as a percentage), printed in column (f) Ki (human being) [nM] Cap

Row | inhibition at 5 µM [%] | SMILES
2 | 50 | O=C(NCc1cc(C(F)(F)F)nn1-c1cccc(Cl)c1)Nc1ccc(C(CO)CO)c(F)c1 [A153, 1-[[2-(3-Chlorophenyl)-5-(trifluoromethyl)-2H-pyrazol-3-yl]-methyl]-3-[3-fluoro-4-[2-hydroxy-1-(hydroxymethyl)-ethyl]-phenyl]-urea]
3 | 35 | CC(C)(C)c1cc(CNC(=O)Nc2ccc(C(C)(CO)CO)cc2)n(-c2cccc(Cl)c2)n1 [A157, 1-[[5-tert-Butyl-2-(3-chlorophenyl)-2H-pyrazol-3-yl]-methyl]-3-[4-[2-hydroxy-1-(hydroxymethyl)-1-methyl-ethyl]-phenyl]-urea]
4 | 48 | O=C(NCc1cc(C(F)(F)F)nn1-c1ccc(F)c(F)c1)Nc1ccc(COCCO)c(F)c1 [A132, 1-[[2-(3,4-Difluoro-phenyl)-5-(trifluoromethyl)-2H-pyrazol-3-yl]-methyl]-3-[3-fluoro-4-(2-hydroxy-ethoxy-methyl)-phenyl]-urea]
5 | 53 | N#Cc1cccc(-n2nc(C(F)(F)F)cc2CNC(=O)Nc2ccc(CO)c(F)c2)c1 [A85, 1-[[2-(3-Cyano-phenyl)-5-(trifluoromethyl)-2H-pyrazol-3-yl]-methyl]-3-[3-fluoro-4-(hydroxymethyl)-phenyl]-urea]
6 | 13 | O=C(NCc1cc(C(F)(F)F)nn1-c1cccc(Cl)c1)Nc1ccc(C(O)(CO)CO)cc1 [A158, 1-[[2-(3-Chlorophenyl)-5-(trifluoromethyl)-2H-pyrazol-3-yl]-methyl]-3-[4-[1,2-dihydroxy-1-(hydroxymethyl)-ethyl]-phenyl]-urea]
7 | 39 | CC(C)(C)c1cc(CNC(=O)Nc2ccc(C(CO)CO)c(F)c2)n(-c2cccc(Cl)c2)n1 [A152, 1-[[5-tert-Butyl-2-(3-chlorophenyl)-2H-pyrazol-3-yl]-methyl]-3-[3-fluoro-4-[2-hydroxy-1-(hydroxymethyl)-ethyl]-phenyl]-urea]

Same assay, conditions: human VR1 in CHO K1 cells; AG printed instead of a Ki

Row | (f) Ki (human being) [nM] Cap: agonist classification | SMILES
8 | AG | CC(C(=O)NCc1cc(C(C)(C)C)nn1-c1ccc(F)c(F)c1)c1ccc(CO)c(F)c1 (centres unmarked) [A39, N-[[5-tert-Butyl-2-(3,4-difluoro-phenyl)-2H-pyrazol-3-yl]-methyl]-2-[3-fluoro-4-(hydroxymethyl)-phenyl]-propionamide]
9 | AG | CC(C(=O)NCc1cc(C(C)(C)C)nn1-c1cccc(Cl)c1)c1ccc(C(O)CO)cc1 (centres unmarked) [A147, N-[[5-tert-Butyl-2-(3-chlorophenyl)-2H-pyrazol-3-yl]-methyl]-2-[4-(1,2-dihydroxy-ethyl)-phenyl]-propionamide]
10 | AG | CC(C(=O)NCc1cc(C(C)(C)C)nn1-c1cccc(Cl)c1)c1ccc(CCO)c(F)c1 (centres unmarked) [A139, N-[[5-tert-Butyl-2-(3-chlorophenyl)-2H-pyrazol-3-yl]-methyl]-2-[3-fluoro-4-(2-hydroxy-ethyl)-phenyl]-propionamide]

Same assay, conditions: read-out: (f) Ki (human being) [nM] Cap

Row | SMILES | Ki [nM]
11 | O=C(NCc1cc(C(F)(F)F)nn1-c1ccccc1F)Nc1ccc(CO)c(F)c1 [A61, 1-[3-Fluoro-4-(hydroxymethyl)-phenyl]-3-[[2-(2-fluorophenyl)-5-(trifluoromethyl)-2H-pyrazol-3-yl]-methyl]-urea] | 26
12 | COc1c(F)cc(CC(=O)NCc2cc(C(C)(C)C)nn2-c2ccc(F)c(Cl)c2)cc1F [A6, N-[[5-tert-Butyl-2-(3-chloro-4-fluoro-phenyl)-2H-pyrazol-3-yl]-methyl]-2-(3,5-difluoro-4-methoxy-phenyl)-acetamide] | 14
13 | CC(C)c1cccc(-n2nc(C(F)(F)F)cc2CNC(=O)Nc2ccc(CO)c(F)c2)c1 [A82, 1-[3-Fluoro-4-(hydroxymethyl)-phenyl]-3-[[2-(3-isopropyl-phenyl)-5-(trifluoromethyl)-2H-pyrazol-3-yl]-methyl]-urea] | 2
14 | CC(C(=O)NCc1cc(C(F)(F)F)nn1-c1cccc(F)c1)c1ccc(CO)c(F)c1 (centres unmarked) [A38, 2-[3-Fluoro-4-(hydroxymethyl)-phenyl]-N-[[2-(3-fluorophenyl)-5-(trifluoromethyl)-2H-pyrazol-3-yl]-methyl]-propionamide] | 11
15 | O=C(NCc1cc(C(F)(F)F)nn1-c1cccc(Cl)c1)Nc1ccc(CO)c(Cl)c1 [A97, 1-[3-Chloro-4-(hydroxymethyl)-phenyl]-3-[[2-(3-chlorophenyl)-5-(trifluoromethyl)-2H-pyrazol-3-yl]-methyl]-urea] | 11
16 | CC(C(=O)NCc1cc(C(C)(C)C)nn1-c1cccc(F)c1)c1ccc(COCCO)c(F)c1 (centres unmarked) [A116, N-[[5-tert-Butyl-2-(3-fluorophenyl)-2H-pyrazol-3-yl]-methyl]-2-[3-fluoro-4-(2-hydroxy-ethoxy-methyl)-phenyl]-propionamide] | 18
17 | Cc1cccc(-n2nc(C(C)(C)C)cc2CNC(=O)Nc2ccc(CO)c(F)c2)c1 [A56, 1-[[5-tert-Butyl-2-(m-tolyl)-2H-pyrazol-3-yl]-methyl]-3-[3-fluoro-4-(hydroxymethyl)-phenyl]-urea] | 2
18 | CCOc1ccc(C)cc1-n1nc(C(F)(F)F)cc1CNC(=O)Nc1ccc(CO)c(F)c1 [A88, 1-[[2-(2-Ethoxy-5-methyl-phenyl)-5-(trifluoromethyl)-2H-pyrazol-3-yl]-methyl]-3-[3-fluoro-4-(hydroxymethyl)-phenyl]-urea] | 86
19 | Cc1cc(-n2nc(C(F)(F)F)cc2CNC(=O)Nc2ccc(CO)c(F)c2)ccc1F [A80, 1-[3-Fluoro-4-(hydroxymethyl)-phenyl]-3-[[2-(4-fluoro-3-methyl-phenyl)-5-(trifluoromethyl)-2H-pyrazol-3-yl]-methyl]-urea] | 7
20 | O=C(NCc1cc(C(F)(F)F)nn1-c1ccc(F)c(Cl)c1)Nc1ccc(OCCO)c(F)c1 [A22, 1-[[2-(3-Chloro-4-fluoro-phenyl)-5-(trifluoromethyl)-2H-pyrazol-3-yl]-methyl]-3-[3-fluoro-4-(2-hydroxy-ethoxy)-phenyl]-urea] | 40
21 | O=C(NCc1cc(C(F)(F)F)nn1-c1cccc(C(F)F)c1)Nc1ccc(CO)c(F)c1 [A83, 1-[[2-[3-(Difluoro-methyl)-phenyl]-5-(trifluoromethyl)-2H-pyrazol-3-yl]-methyl]-3-[3-fluoro-4-(hydroxymethyl)-phenyl]-urea] | 12
22 | Cc1cc(-n2nc(C(F)(F)F)cc2CNC(=O)Nc2ccc(CO)c(F)c2)ccc1Cl [A78, 1-[[2-(4-Chloro-3-methyl-phenyl)-5-(trifluoromethyl)-2H-pyrazol-3-yl]-methyl]-3-[3-fluoro-4-(hydroxymethyl)-phenyl]-urea] | 11
23 | CC(C(=O)NCc1cc(C(F)(F)F)nn1-c1cccc(Cl)c1)c1cc(F)c(O)c(F)c1 (centres unmarked) [A10, N-[[2-(3-Chlorophenyl)-5-(trifluoromethyl)-2H-pyrazol-3-yl]-methyl]-2-(3,5-difluoro-4-hydroxy-phenyl)-propionamide] | 1
24 | CC(C(=O)NCc1cc(C(F)(F)F)nn1-c1cccc(Cl)c1)c1ccc(COCCO)c(F)c1 (centres unmarked) [A118, N-[[2-(3-Chlorophenyl)-5-(trifluoromethyl)-2H-pyrazol-3-yl]-methyl]-2-[3-fluoro-4-(2-hydroxy-ethoxy-methyl)-phenyl]-propionamide] | 27
25 | COc1c(F)cc(NC(=O)NCc2cc(C(F)(F)F)nn2-c2cccc(Cl)c2)cc1F [A8, 1-[[2-(3-Chlorophenyl)-5-(trifluoromethyl)-2H-pyrazol-3-yl]-methyl]-3-(3,5-difluoro-4-methoxy-phenyl)-urea] | 55
26 | O=C(NCc1cc(C(F)(F)F)nn1-c1cccc(Cl)c1)Nc1ccc(CO)c(F)c1 [A59, 1-[[2-(3-Chlorophenyl)-5-(trifluoromethyl)-2H-pyrazol-3-yl]-methyl]-3-[3-fluoro-4-(hydroxymethyl)-phenyl]-urea] | 7
27 | Cc1cccc(-n2nc(C(F)(F)F)cc2CNC(=O)Nc2ccc(CO)c(F)c2)c1C [A72, 1-[[2-(2,3-Dimethyl-phenyl)-5-(trifluoromethyl)-2H-pyrazol-3-yl]-methyl]-3-[3-fluoro-4-(hydroxymethyl)-phenyl]-urea] | 14
28 | C[C@@H](C(=O)NCc1cc(C(F)(F)F)nn1-c1cccc(Cl)c1)c1ccc(COCCO)c(F)c1 [A120, (2R)-N-[[2-(3-Chlorophenyl)-5-(trifluoromethyl)-2H-pyrazol-3-yl]-methyl]-2-[3-fluoro-4-(2-hydroxy-ethoxy-methyl)-phenyl]-propionamide] | 5

Further lines, results first:

Row | Ki [nM] | SMILES
29 | 62 | O=C(NCc1cc(C(F)(F)F)nn1-c1cccc(Cl)c1)Nc1ccc(C(O)CO)c(F)c1 (centres unmarked) [A151, 1-[[2-(3-Chlorophenyl)-5-(trifluoromethyl)-2H-pyrazol-3-yl]-methyl]-3-[4-(1,2-dihydroxy-ethyl)-3-fluoro-phenyl]-urea]
30 | 12 | O=C(NCc1cc(C(F)(F)F)nn1-c1cccc(Cl)c1Cl)Nc1ccc(COCCO)c(F)c1 [A133, 1-[[2-(2,3-Dichloro-phenyl)-5-(trifluoromethyl)-2H-pyrazol-3-yl]-methyl]-3-[3-fluoro-4-(2-hydroxy-ethoxy-methyl)-phenyl]-urea]
31 | 4 | CC(C(=O)NCc1cc(C(F)(F)F)nn1-c1cccc(Cl)c1)c1ccc(C(O)CO)c(F)c1 (centres unmarked) [A148, N-[[2-(3-Chlorophenyl)-5-(trifluoromethyl)-2H-pyrazol-3-yl]-methyl]-2-[4-(1,2-dihydroxy-ethyl)-3-fluoro-phenyl]-propionamide]
32 | 45 | CC(C(=O)NCc1cc(C(F)(F)F)nn1-c1cccc(F)c1)c1ccc(COCCO)c(F)c1 (centres unmarked) [A122, 2-[3-Fluoro-4-(2-hydroxy-ethoxy-methyl)-phenyl]-N-[[2-(3-fluorophenyl)-5-(trifluoromethyl)-2H-pyrazol-3-yl]-methyl]-propionamide]
